Broadly, the EC50 is the concentration that produces a half-maximal response.

Where two headings read alike, the source gives them in different places.

The source of these data is US8207178B2 (priority 2007, dated 2012).

The test system of test [1] is wild type HIV-1. Description: microbe, parasite or virus in culture. The class given is cell-based, human immunodeficiency virus type 1 (HIV-1). The following applies: Human immunodeficiency virus 1, Hela-JC53.
Test [2] concerns HIV-1 K103N-L100I mutant. Description: microbe, parasite or virus in culture. The class given is cell-based, human immunodeficiency virus type 1 (HIV-1).
Setting [3] is: Human immunodeficiency virus 1, HeLa, read-out: EC50 mutant K103N-L100I, mutant K103N-L100I.

Turning to `Cc1cc(-c2cc(F)nc(F)c2)cc(C)c1Oc1nc(Nc2ccc(C#N)cc2)nc2ccn(C)c12` [Example 4, 4-(4-(4-(2,6-Difluoropyridin-4-yl)-2,6-dimethylphenoxy)-5-methyl-5H-pyrrolo[3,2-d]pyrimidin-2-ylamino) benzonitrile], the half-maximal effective concentration (EC50) in test [1] was 0.001 to 0.01 µM; in test [2] (setting [3]) it was more than 0.01 µM.

For `COc1cnccc1-c1cc(C)c(Oc2nc(Nc3ccc(C#N)cc3)nc3ccn(C)c23)c(C)c1` [Example 9, 4-(4-(4-(3-Methoxypyridin-4-yl)-2,6-dimethylphenoxy)-5-methyl-5H-pyrrolo[3,2-d]pyrimidin-2-ylamino) benzonitrile], the EC50 in test [1] and in test [2] (setting [3]) was 0.001 to 0.01 µM in each case. `COc1cc(-c2cc(C)c(Oc3nc(Nc4ccc(C#N)cc4)nc4ccn(C)c34)c(C)c2)ccn1` [Example 10, 4-(4-(4-(2-Methoxypyridin-4-yl)-2,6-dimethylphenoxy)-5-methyl-5H-pyrrolo[3,2-d]pyrimidin-2-ylamino) benzonitrile]: the EC50 in test [1] and in test [2] (setting [3]) was more than 0.01 µM each time.

As to `Cc1cc(-c2ccncc2Cl)cc(C)c1Oc1nc(Nc2ccc(C#N)cc2)nc2ccn(C)c12` [Example 11, 4-(4-(4-(3-Chloropyridin-4-yl)-2,6-dimethylphenoxy)-5-methyl-5H-pyrrolo[3,2-d]pyrimidin-2-ylamino) benzonitrile], the concentration for a half-maximal effect (EC50) in test [1] and in test [2] (setting [3]) was less than 0.001 µM throughout. For the compound `Cc1cc(-c2cccnc2)cc(C)c1Oc1nc(Nc2ccc(C#N)cc2)nc2ccn(C)c12` [Example 12, 4-(4-(2,6-Dimethyl-4-(pyridin-3-yl)phenoxy)-5-methyl-5H-pyrrolo[3,2-d]pyrimidin-2-ylamino)benzonitrile], the results for the EC50 in test [1] and in test [2] (setting [3]) were 0.001 to 0.01 µM and more than 0.01 µM, respectively. The matching figures for `Cc1cc(-c2ccoc2)cc(C)c1Oc1nc(Nc2ccc(C#N)cc2)nc2ccn(C)c12` [Example 13, 4-(4-(4-(Furan-3-yl)-2,6-dimethylphenoxy)-5-methyl-5H-pyrrolo[3,2-d]pyrimidin-2-ylamino)benzonitrile]: 0.001 to 0.01 µM and more than 0.01 µM. Turning to `Cc1cc(-c2cncnc2)cc(C)c1Oc1nc(Nc2ccc(C#N)cc2)nc2ccn(C)c12` [Example 14, 4-(4-(2,6-dimethyl-4-(pyrimidin-5-yl)phenoxy)-5-methyl-5H-pyrrolo[3,2-d]pyrimidin-2-ylamino) benzonitrile], the EC50 is less than 0.001 µM in test [1] and 0.001 to 0.01 µM in test [2] (setting [3]).

On to `Cc1cc(-c2ccncc2)cc(C)c1Oc1nc(Nc2ccc(C#N)cc2)nc2c(Cl)cn(C)c12` [Example 18, 4-(7-Chloro-4-(2,6-dimethyl-4-(pyridin-4-yl)phenoxy)-5-methyl-5H-pyrrolo[3,2-d]pyrimidin-2-ylamino)benzonitrile], for which the EC50 in test [1] and in test [2] (setting [3]) was 0.001 to 0.01 µM throughout. `Cc1cc(-c2ccncc2)cc(C)c1Nc1nc(Nc2ccc(C#N)cc2)nc2ccn(C)c12` [Example 19, 4-(4-(2,6-Dimethyl-4-(pyridin-4-yl)phenylamino)-5-methyl-5H-pyrrolo[3,2-d]pyrimidin-2-ylamino)benzonitrile]: the EC50 in test [1] was less than 0.001 µM; in test [2] (setting [3]), 0.001 to 0.01 µM. `COc1ncc(-c2cc(C)c(Oc3nc(Nc4ccc(C#N)cc4)nc4ccn(C)c34)c(C)c2)cn1` [Example 20, 4-(4-(4-(2-Methoxypyrimidin-5-yl)-2,6-dimethylphenoxy)-5-methyl-5H-pyrrolo [3,2-d]pyrimidin-2-ylamino)benzonitrile]: the EC50 in test [1] is less than 0.001 µM; in test [2] (setting [3]), 0.001 to 0.01 µM. Consider `Cc1cc(-c2c(C)nn(C)c2C)cc(C)c1Oc1nc(Nc2ccc(C#N)cc2)nc2ccn(C)c12` [Example 21], for which the figures for the EC50 in test [1] and in test [2] (setting [3]) were 0.001 to 0.01 µM and more than 0.01 µM, respectively.

Regarding `Cc1cc(-c2ccc(N(C)C)cc2)cc(C)c1Oc1nc(Nc2ccc(C#N)cc2)nc2ccn(C)c12` [Example 22, 4-(4-(4′-(Dimethylamino)-3,5-dimethylphenyl-4-yloxy)-5-methyl-5H-pyrrolo[3,2-d]pyrimidin-2-ylamino)benzonitrile], the EC50 was 0.001 to 0.01 µM in test [1] and more than 0.01 µM in test [2] (setting [3]). As to `Cc1cc(-c2ccncc2C#N)cc(C)c1Oc1nc(Nc2ccc(C#N)cc2)nc2ccn(C)c12` [Example 23, 4-(4-(2-(4-Cyanophenylamino)-5-methyl-5H-pyrrolo[3,2-d]pyrimidin-4-yloxy)-3,5-dimethyl-phenyl)nicotinonitrile], the EC50 was less than 0.001 µM in test [1] and more than 0.01 µM in test [2] (read-out: EC50 mutant K103N-L100I, mutant K103N-L100I). As to `Cc1cc(-c2ccnn2C)cc(C)c1Oc1nc(Nc2ccc(C#N)cc2)nc2ccn(C)c12` [Example 25, 4-(4-(2,6-Dimethyl-4-(1-methyl-1H-pyrazol-5-yl)phenoxy)-5-methyl-5H-pyrrolo[3,2-d]pyrimidin-2-ylamino)benzonitrile], the EC50 in test [1] and in test [2] (setting [3]) was less than 0.001 µM in each case.

Take `Cc1cc(-c2ccc3nonc3c2)cc(C)c1Oc1nc(Nc2ccc(C#N)cc2)nc2ccn(C)c12` [Example 26, 4-(4-(4-(Benzo-[c][1,2,5]oxadiazol-5-yl)-2,6-dimethylphenoxy)-5-methyl-5H-pyrrolo[3,2-d]pyrimidin-2-ylamino) benzonitrile]: the EC50 in test [1] and in test [2] (setting [3]) was 0.001 to 0.01 µM in each case. Take `Cc1cc(-c2ccc[nH]2)cc(C)c1Oc1nc(Nc2ccc(C#N)cc2)nc2ccn(C)c12` [Example 27, 4-(4-(2,6-Dimethyl-4-(1H pyrrol-2-yl)phenoxy)-5-methyl-5H-pyrrolo[3,2-d]pyrimidin-2-ylamino) benzonitrile]: the EC50 was less than 0.001 µM in test [1] and more than 0.01 µM in test [2] (setting [3]).

In the case of `Cc1cc(-c2cnc(N(C)C)nc2)cc(C)c1Oc1nc(Nc2ccc(C#N)cc2)nc2ccn(C)c12` [Example 28], the EC50 in test [2] (setting [3]) was more than 0.01 µM. Take `Cc1cc(-c2cnc(C#N)nc2)cc(C)c1Oc1nc(Nc2ccc(C#N)cc2)nc2ccn(C)c12` [Example 30, 5-(4-(2-(4-Cyanophenylamino)-5-methyl-5H-pyrrolo[3,2-d]pyrimidin-4-yloxy)-3,5-dimethylphenyl)pyrimidine-2-carbonitrile]: the EC50 in test [1] and in test [2] (setting [3]) was less than 0.001 µM in each case. In the case of `Cc1cc(-c2ccncc2C#N)cc(C)c1Oc1nc(Nc2ccc(C#N)cc2)nc2c(Cl)cn(C)c12` [Example 31, 4-(4-(7-Chloro-2-(4-cyanophenylamino)-5-methyl-5H-pyrrolo[3,2-d]pyrimidin-4-yloxy)-3,5-dimethyl-phenyl)nicotinonitrile], the EC50 in test [1] and in test [2] (setting [3]) was less than 0.001 µM each time. On to `Cc1cc(-c2cn[nH]c2)cc(C)c1Oc1nc(Nc2ccc(C#N)cc2)nc2c(Cl)cn(C)c12` [Example 32, 4-(7-Chloro-4-(2,6-dimethyl-4-(1H-pyrazol-4-yl)phenoxy)-5-methyl-5H-pyrrolo[3,2-d]pyrimidin-2-ylamino)benzonitrile], for which the EC50 in test [1] is 0.001 to 0.01 µM; in test [2] (setting [3]), more than 0.01 µM.

As for `Cc1cc(-c2cccc(N(C)C)c2)cc(C)c1Oc1nc(Nc2ccc(C#N)cc2)nc2ccn(C)c12` [Example 33, 4-(4-(3′-(Dimethylamino)-3,5-dimethylbiphenyl-4-yloxy)-5-methyl-5H-pyrrolo [3,2-d]pyrimidin-2-ylamino) benzonitrile], the EC50 in test [1] and in test [2] (setting [3]) was more than 0.01 µM each time. As for `Cc1cc(-c2ccsc2C#N)cc(C)c1Oc1nc(Nc2ccc(C#N)cc2)nc2ccn(C)c12` [Example 34, 3-(4-(2-(4-Cyanophenylamino)-5-methyl-5H-pyrrolo [3,2-d]pyrimidin-4-yloxy)-3,5-dimethylphenyl) thiophene-2-carbonitrile], the EC50 in test [1] and in test [2] (setting [3]) was 0.001 to 0.01 µM in each case. On to `Cc1cc(-c2cnc(N)nc2)cc(C)c1Oc1nc(Nc2ccc(C#N)cc2)nc2ccn(C)c12` [Example 70, 4-(4-(4-(2-aminopyrimidin-5-yl)-2,6-dimethylbiphenoxy)-5-methyl-5H-pyrrolo[3,2-d]pyrimidin-2-ylamino) benzonitrile], for which the EC50 in test [2] (setting [3]) is 0.001 to 0.01 µM. Same read-out and setting: the value for `Cc1cc(-c2cccc(S(N)(=O)=O)c2)cc(C)c1Oc1nc(Nc2ccc(C#N)cc2)nc2ccn(C)c12` [Example 71, 4′-(2-(4-cyanophenylamino)-5-methyl-5H-pyrrolo[3,2-d]pyrimidin-4-yloxy)-3′,5′-dimethylbiphenyl-3-sulfonamide] was more than 0.01 µM. Take `COc1ccc(-c2cc(C)c(Oc3nc(Nc4ccc(C#N)cc4)nc4ccn(C)c34)c(C)c2)cn1` [Example 82, 4-(4-(4-(6-methoxypyridin-3-yl)-2,6-dimethylphenoxy)-5-methyl-5H-pyrrolo[3,2-d]pyrimidin-2-ylamino) benzonitrile]: in test [1], the EC50 was more than 0.01 µM. On the same count and under the same terms, the value for `COc1cccc(C#N)c1-c1cc(C)c(Oc2nc(Nc3ccc(C#N)cc3)nc3ccn(C)c23)c(C)c1` [Example 83, 4′-(2-(4-cyanophenylamino)-5-methyl-5H-pyrrolo[3,2-d]pyrimidin-4-yloxy)-6-methoxy-3′,5′-dimethylbiphenyl-2-carbonitrile] was more than 0.01 µM. `Cc1cc(-c2ccc(C(=O)N3CCCC3)cc2)cc(C)c1Oc1nc(Nc2ccc(C#N)cc2)nc2ccn(C)c12` [Example 93, 4-(4-(3,5-dimethyl-4′-(pyrrolidine-1-carbonyl)biphenyl-4-yloxy)-5-methyl-5H-pyrrolo[3,2-d]pyrimidin-2-ylamino) benzonitrile] gave an EC50 in test [1] of more than 0.01 µM.

`Cc1cc(-c2ccc(C(=O)O)cn2)cc(C)c1Oc1nc(Nc2ccc(C#N)cc2)nc2[nH]cnc12` [Example 121, 6-(4-(2-(4-cyanophenylamino)-9H-purin-6-yloxy)-3,5-dimethylphenyl)nicotinic acid] displayed an EC50 in test [1] of more than 0.01 µM. With `Cc1cc(-c2ccc(C(=O)N3CCC(C(N)=O)C3)cn2)cc(C)c1Oc1nc(Nc2ccc(C#N)cc2)nc2[nH]cnc12` (stereo not drawn) [Example 122, 1-(6-(4-(2-(4-cyanophenylamino)-9H-purin-6-yloxy)-3,5-dimethylphenyl)nicotinoyl)pyrrolidine-3-carboxamide], in test [1], the EC50 is more than 0.01 µM. Same read-out and setting: the same measure for `Cc1cc(-c2ccc(C(N)=O)cn2)cc(C)c1Oc1nc(Nc2ccc(C#N)cc2)nc2[nH]cnc12` [Example 126, 6-(4-(2-(4-cyanophenylamino)-9H-purin-6-yloxy)-3,5-dimethylphenyl)nicotinamide]: 0.001 to 0.01 µM.
